Values of other authors as cited in patent US20210128727A1, “A pharmaceutical combination for use in the treatment of cancer” (Universitätsmedizin der Johannes Gutenberg-Universität Mainz, priority 2018, published 2021).

Molecular target: T1, TLR-9 (Mus musculus, UniProt Q9EQU3)
T1 construct: host or cells: mice (in vivo, endogenous protein)
T1 sequence (Q9EQU3 26-1032): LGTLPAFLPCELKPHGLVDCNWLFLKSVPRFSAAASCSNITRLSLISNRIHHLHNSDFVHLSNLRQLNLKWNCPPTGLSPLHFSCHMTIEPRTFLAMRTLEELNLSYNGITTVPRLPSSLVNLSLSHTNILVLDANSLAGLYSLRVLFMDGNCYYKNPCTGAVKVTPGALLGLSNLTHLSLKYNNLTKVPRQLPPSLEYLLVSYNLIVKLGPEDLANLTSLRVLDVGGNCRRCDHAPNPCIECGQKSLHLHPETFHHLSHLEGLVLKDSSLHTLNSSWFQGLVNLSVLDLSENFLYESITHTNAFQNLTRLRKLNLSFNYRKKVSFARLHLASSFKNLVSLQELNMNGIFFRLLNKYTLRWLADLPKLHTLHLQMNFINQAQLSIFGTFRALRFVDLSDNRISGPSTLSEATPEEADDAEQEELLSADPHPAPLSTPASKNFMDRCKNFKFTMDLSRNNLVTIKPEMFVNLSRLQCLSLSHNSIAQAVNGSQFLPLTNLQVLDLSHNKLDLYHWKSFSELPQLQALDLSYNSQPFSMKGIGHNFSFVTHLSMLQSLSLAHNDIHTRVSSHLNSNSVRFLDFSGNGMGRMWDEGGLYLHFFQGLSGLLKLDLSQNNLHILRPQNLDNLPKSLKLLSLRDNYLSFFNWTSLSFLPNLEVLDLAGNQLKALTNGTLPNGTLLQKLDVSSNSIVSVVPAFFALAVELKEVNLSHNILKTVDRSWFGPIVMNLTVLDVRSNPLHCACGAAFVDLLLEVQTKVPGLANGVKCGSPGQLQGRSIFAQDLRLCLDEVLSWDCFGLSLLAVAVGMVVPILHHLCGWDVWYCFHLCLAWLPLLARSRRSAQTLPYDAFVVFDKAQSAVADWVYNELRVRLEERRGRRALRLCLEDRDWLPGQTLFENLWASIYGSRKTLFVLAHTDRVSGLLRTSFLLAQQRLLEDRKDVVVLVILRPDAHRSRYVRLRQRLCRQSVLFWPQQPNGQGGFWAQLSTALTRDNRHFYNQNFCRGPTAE
Conditions: mice

## 5′-TCCATGACGTTCCTGATGCT-3′: CpG oligodeoxynucleotide TLR9 agonist produced at Metabion International AG (DNA, all phosphorothioate, methylation of C not given here; listed as Mus musculus)
  reversal of regulatory T cell-mediated CD8 tolerance: efficiently reverse regulatory T cell-mediated CD8 tolerance
